Format in all cases: binding
The subject of assay [1] is 53BP1 TTD. Briefly: Histone peptide microarray, 53BP1 TTD. As to conditions: 53BP1 TTD hits, average signal per peptide. As for the experimental part: (§1) Peptide microarrays were fabricated using an Aushon 2470 microarrayer and used as described ([Cornett et al., 2017]) with the following modifications. Protein and antibody hybridization steps were performed in buffer containing 25 mM HEPES pH 7.5, 100 mM NaCl, 0.5% BSA (w/v), and 0.1% NP-40. Slides were washed 3 × 5 min in PBS supplemented with 0.1% Tween-20 between each hybridization step. Antibodies used were primary anti-GST (Sigma #7781, 1:2,000 dilution) and an AlexaFluor 647-labeled secondary antibody (Life Technologies A-21245, 1:5,000 dilution). […] Full lists of peptides queried by array analysis are in Supplementary Table S2.

In assay [2] the test system is Active Motif #39161, anti-H3K9me3. Briefly: Histone peptide microarray, Active Motif 39161.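 Note: normalized to the highest peptide average per subarray.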 As to conditions: Active Motif 39161 (anti-H3K9me3) hits. The method, then:
as §1

For assay [3], the system named is Millipore #07-449, anti-H3K27me3. In words: Histone peptide microarray, Millipore 07-449.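 Note: normalized to the highest peptide average per subarray.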 The note with it: Millipore 07-449 (anti-H3K27me3) hits, average signal per peptide. The method, then: as §1
The subject of assay [4] is Abcam #ab8895, anti-H3K4me1. In words: Histone peptide microarray, Abcam ab8895.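 Note: normalized to the highest peptide average per subarray.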 The note with it: Abcam ab8895 (anti-H3K4me1) hits, average signal per peptide. The method, then:
as §1

“(Biot)Peg-MPKDIQLARRIRGERA-OH [H3.1.1(120-135)]”: the “Avg Signal” value worked out at 0.05797 in assay [1], 0.000221 in assay [2] and 0.0002349 in assay [3].
“ACitTK(Ac)QTARK(Ac)STGGK(Ac)APRK(Ac)QL-K(Biot)-NH2 [H3.1Cit2K4acK9acK14acK18ac]”: the “Avg Signal” value is on record as 0.04568 in assay [1] and 0.003876 in assay [2].
For “ARTK(Ac)QTARK(Ac)STGGK(Ac)APRKQL-K(Biot)-NH2 [H3.1K4acK9acK14ac]”, in assay [1], the “Avg Signal” value is listed as 0.1165.
Regarding “ARTK(Ac)QTARK(Ac)STGGKAPRK(Ac)QL-K(Biot)-NH2 [H3.1K4acK9acK18ac]”, the figures for the “Avg Signal” value in assay [1], in assay [2] and in assay [3] were 0.1542, 0.011 and 0.0004417, respectively.
“ARTK(Ac)QTARK(Ac)STGGKAPRKQL-K(Biot)-NH2 [Peptide H3.1K4acK9ac]”: the “Avg Signal” value in assay [1] amounted to 0.05583.
The same measure, in the same setting: next, “ARTK(Ac)QTARK(Ac)pSTGGK(Ac)APRK(Ac)QL-K(Biot)-NH2 [H3.1K4acK9acS10pK14acK18ac]”: 0.04385.
As for “ARTK(Ac)QTARKSTGGKAPRKQL-K(Biot)-NH2 [Peptide H3.1K4ac]”, the “Avg Signal” value is given as 0.1441 in assay [1] and 0.0285 in assay [2].
Regarding “ARTKQTARK(Ac)pSTGGKAPRKQL-K(Biot)-NH2 [Peptide H3.1K9acS10p]”, the “Avg Signal” value is 0.1852 in assay [4] and 0.0481 in assay [1].
With “ARTKQTARK(Me2)pSTGGKAPRKQL-K(Biot)-NH2 [H3.1K9me2S10p]”, the “Avg Signal” value in assay [4] is listed as 0.1568; in assay [1], 0.3509.
For “ARTKQTARK(Me)pSTGGKAPRKQL-K(Biot)-NH2 [H3.1K9me1S10p]” the same measures were 0.1234 and 0.1506.
Take “ARTKQpTARK(Ac)STGGK(Ac)APRK(Ac)QL-K(Biot)-NH2 [H3.1T6pK9acK14acK18ac]”: the entries for the “Avg Signal” value in assay [1], in assay [2] and in assay [3] were 0.04664, 0.002409 and 0.004763, respectively.
For “ARpTK(Me3)QTARK(Ac)STGGK(Ac)APRK(Ac)QL-K(Biot)-NH2 [H3.1T3pK4me3K9acK14acK18ac]” the same measures were 0.05883, 0.05484 and 0.007748.
The matching figures for “ARpTK(Me3)QTARKSTGGKAPRKQL-K(Biot)-NH2 [Peptide H3.1T3pK4me3]”: 0.0446, 0.008533 and 9.707e-5.
As for “Ac-IAQDFK(Me)TDLRF-Peg-K(Biot)-NH2 [Peptide H3.1K79me1]”, the “Avg Signal” value in assay [1] came to 0.009736; in assay [2], 0.002481.
Turning to “Ac-IAQDFKTDLRF-Peg-K(Biot)-NH2 [H3.1.1(74-84)N-ac]”, the figures for the “Avg Signal” value in assay [1] and in assay [2] were 0.06248 and 0.005943, respectively.
On to “Ac-SGRGK(Ac)GGK(Ac)GLGK(Ac)GGAKRHRKVLR-Peg-Biot [H4K5acK8acK12ac]”, for which the “Avg Signal” value in assay [1] came to 0.2078; in assay [3], 0.002971.
As to “Ac-SGRGKQGGKARAKAKTR-Peg-Biot [H2A(1-17)]”, the “Avg Signal” value in assay [1] is 0.1243.
Still for that read-out and setting: next, “Ac-pSGRGK(Ac)QGGK(Ac)ARAK(Ac)AK(Ac)TR-Peg-Biot [H2AS1pK5acK9acK13acK15ac]”: 0.09024.
Regarding “Ac-pSGRGK(Ac)QGGKARAKAKTR-Peg-Biot [Peptide H2AS1pK5ac]”, the entries for the “Avg Signal” value in assay [1] and in assay [2] were 0.01536 and 0.009305, respectively.
Turning to “IAQDFKTDLRF-Peg-K(Biot)-NH2 [H3.1.1(74-84)]”, the “Avg Signal” value in assay [1] was determined as 0.02; in assay [2] it was 0.003353.
With “KSAPSTGGVK(Ac)KPHRYKPGT-GG-K(Biot)-NH2 [yH3K36ac]”, the “Avg Signal” value in assay [1] is listed as 0.06747.
Same read-out and setting: next, “KSAPSTGGVK(Me2)KPHRYKPGT-GG-K(Biot)-NH2 [yH3K36me2]”: 0.8217.
On the same count and under the same terms, next, “KSAPSTGGVKKPHRYKPGT-GG-K(Biot)-NH2 (C-terminal GG-K(biotin) amide) [yH3.1(27-45)]”: 0.1127.

The values are drawn from paper PMC7160673, “A Degenerate Peptide Library Approach to Reveal Sequence Determinants of Methyllysine-Driven Protein Interactions” (Frontiers in Cell and Developmental Biology, 2020).
